{"source": "patent EP1148124A1", "about": "(priority 1999, dated 2000)", "key": {"[1]": {"tested_on": "aryl hydrocarbon receptor", "test": "Luciferase assay for clone selection (Example 2), firefly luciferase ligand responsive reporter gene"}, "Ah receptor": {"tested_on": "Ah receptor", "test": "Reporter assay (No. 2), ligand responsive reporter gene (firefly luciferase, pGV-Ya-XREx5), clone of Example 3", "assay_type": "cell-based, mouse"}, "[2]": {"test": "Reporter assay (No. 2), cell number reporter gene (sea pansy luciferase, pRL-TK), clone of Example 3", "assay_type": "cell-based", "details": "mouse, hepa1c1c7 cells", "experimental": "For the measured values of the amount of expression of the cell number reporter gene, a ratio is determined of the measured value in the test substance added group to the measured value in the only solvent added group (control group). When the ratio is, for example, in the range of 0.8 to 1.2, the measured value of the amount of expression of the ligand responsive reporter gene in the test substance added group is selected for evaluating the agonist or antagonist activity of the test substance against the ability of a ligand responsive transcriptional regulatory factor to promote transcription. When the ratio takes a small value such as smaller than 0.8, for example, it is possible that the test substance has cytotoxicity. In contrast, when the ratio takes a large value such as greater than 1.2, for example, it is possible that the test substance has activity against the transcriptional regulatory system of a gene without mediation of a ligand responsive transcriptional regulatory factor. However, the range of this ratio suitable for selecting the measured value of the amount of expression of the […] reporter gene may vary depending on certain properties of the present cells used and the conditions of measurement, and it is not limited to the above examples of numerical values.\nSeparately, the ligand responsive reporter gene containing plasmid pGV-Ya-XREx5 constructed in Example 1 was digested with Bam HI. Further, the cell number reporter gene containing plasmid pRL-TK (marketed by Toyo Ink) was digested with Bam HI, and the neomycin resistance (aminoglycoside phosphotransferase) gene containing plasmid pRc/RSV (available from INVITROGEN) was digested with Hind III. These three digested plasmids, i.e., Bam HI digested pGV-Ya-XREx5 (5.6 µg), Bam HI digested pRL-TK (5.6 µg), and Hind III digested pRc/RSV (1 µg), were mixed with 600 µl of αMEM medium (mixture C), while 72 µl of lipofectin (available from GIBCO-BRL) was mixed with 600 µl of αMEM medium (mixture D). After being left at room temperature for 30 minutes, mixtures C and D were combined together and left at room temperature for 10 minutes. After the Hepalclc7 cells cultured overnight as described above were then washed once with αMEM medium, there was added a half volume of a solution prepared by adding and mixing additional 10.8 ml of αMEM medium into the above mixture (C + D). Culturing of the resulting mixture was carried out for 5 hours. The medium was then replaced with 10% serum containing αMEM medium, followed by further culturing for 2 days. Subsequently, the cells were scratched from the petri dishes and collected, and the collected cells were suspended in 10% serum containing αMEM medium to have the total volume of 100 ml. The resulting cell suspension was plated on 96-well plates at a ratio of 100 µl/well. After these plates were cultured overnight, a medium prepared by dissolving G418 in 10% serum containing αMEM medium to have a concentration of 3.2 mg/ml was added at a ratio of 100 µl/well (G418 final concentration 1.6 mg/ml). Culturing was further continued, during which the medium was replaced with 10% serum containing αMEM medium containing 800 µg/ml G418 at a rate of once per 4 to 5 days. The volume of the medium was set at 200 µl/well. […] To the first plate, only DMSO was added (solvent control), and to the second plate, 3-MC dissolved in DMSO was added so that the final concentration of 3-MC in the second plate came to 2 µm per well. The first and second plates were then cultured overnight. In this case, the DMSO or the solution of 3-MC in DMSO was added so that the final concentration of DMSO in each well came to 0.04%. The third plate was further cultured as the master plate. From each well of each plate, to which DMSO or 3-MC had been added, the medium was removed, and the wells were washed twice with PBS(-). […]"}, "[3]": {"details": "final conc. 1 nM, about 6 hours"}, "[4]": {"details": "final conc. 10 nM, about 6 hours"}, "[5]": {"details": "final conc. 100 nM, about 6 hours"}, "[6]": {"details": "final conc. 1000 nM, about 6 hours"}, "[7]": {"details": "final conc. 10000 nM, about 6 hours"}, "[8]": {"details": "final conc. 50000 nM, about 6 hours"}}, "note": "Like-named read-outs stand apart in the source and are kept apart here."}
{"smiles": "Cc1ccc2cc3c(ccc4ccccc43)c3c2c1CC3", "note": "[3-MC, 3-methylcholanthrene]", "values": [{"measurement": "increase in the expression of the firefly luciferase gene by the addition of 3-MC", "setting": "[1]", "result": "about 10 times"}]}
{"smiles": "c1ccc2c(c1)cc1ccc3cccc4ccc2c1c34", "note": "[Benzo[a]pyrene, benzo[a]pyrene]", "values": [{"measurement": "Amount of luminescence by firefly luciferase (from pGV-Ya-XREx5) Measured value", "setting": "Ah receptor; [3]", "result": "0.414 x 10^2"}, {"measurement": "Amount of luminescence by firefly luciferase (from pGV-Ya-XREx5) Ratio", "setting": "Ah receptor; final conc. 1 nM, about 6 hours, ratio to 0 nM", "result": 1.7}, {"measurement": "Amount of luminescence by firefly luciferase (from pGV-Ya-XREx5) Measured value", "setting": "Ah receptor; [4]", "result": "0.928 x 10^2"}, {"measurement": "Amount of luminescence by firefly luciferase (from pGV-Ya-XREx5) Ratio", "setting": "Ah receptor; final conc. 10 nM, about 6 hours, ratio to 0 nM", "result": 3.7}, {"measurement": "Amount of luminescence by firefly luciferase (from pGV-Ya-XREx5) Measured value", "setting": "Ah receptor; [5]", "result": "1.72 x 10^2"}, {"measurement": "Amount of luminescence by firefly luciferase (from pGV-Ya-XREx5) Ratio", "setting": "Ah receptor; final conc. 100 nM, about 6 hours, ratio to 0 nM", "result": 6.9}, {"measurement": "Amount of luminescence by firefly luciferase (from pGV-Ya-XREx5) Measured value", "setting": "Ah receptor; [6]", "result": "3.12 x 10^2"}, {"measurement": "Amount of luminescence by firefly luciferase (from pGV-Ya-XREx5) Ratio", "setting": "Ah receptor; final conc. 1000 nM, about 6 hours, ratio to 0 nM", "result": 12}, {"measurement": "Amount of luminescence by firefly luciferase (from pGV-Ya-XREx5) Measured value", "setting": "Ah receptor; [7]", "result": "4.54 x 10^2"}, {"measurement": "Amount of luminescence by firefly luciferase (from pGV-Ya-XREx5) Ratio", "setting": "Ah receptor; final conc. 10000 nM, about 6 hours, ratio to 0 nM", "result": 18}, {"measurement": "Amount of luminescence by firefly luciferase (from pGV-Ya-XREx5) Measured value", "setting": "Ah receptor; [8]", "result": "5.76 x 10^2"}, {"measurement": "Amount of luminescence by firefly luciferase (from pGV-Ya-XREx5) Ratio", "setting": "Ah receptor; final conc. 50000 nM, about 6 hours, ratio to 0 nM", "result": 23}, {"measurement": "viability at 6 h, 0.001 µM", "setting": "[2]; final conc. 1 nM, about 6 hours, ratio to 0 nM, read-out: Amount of luminescence by sea pansy luciferase (from pRL-TK) Ratio", "result": 90, "unit": "%"}, {"measurement": "viability at 6 h, 0.01 µM", "setting": "[2]; final conc. 10 nM, about 6 hours, ratio to 0 nM, read-out: Amount of luminescence by sea pansy luciferase (from pRL-TK) Ratio", "result": 90, "unit": "%"}, {"measurement": "viability at 6 h, 0.1 µM", "setting": "[2]; final conc. 100 nM, about 6 hours, ratio to 0 nM, read-out: Amount of luminescence by sea pansy luciferase (from pRL-TK) Ratio", "result": 80, "unit": "%"}, {"measurement": "viability at 6 h, 1 µM", "setting": "[2]; final conc. 1000 nM, about 6 hours, ratio to 0 nM, read-out: Amount of luminescence by sea pansy luciferase (from pRL-TK) Ratio", "result": 90, "unit": "%"}, {"measurement": "viability at 6 h, 10 µM", "setting": "[2]; final conc. 10000 nM, about 6 hours, ratio to 0 nM, read-out: Amount of luminescence by sea pansy luciferase (from pRL-TK) Ratio", "result": 80, "unit": "%"}, {"measurement": "viability at 6 h, 50 µM", "setting": "[2]; final conc. 50000 nM, about 6 hours, ratio to 0 nM, read-out: Amount of luminescence by sea pansy luciferase (from pRL-TK) Ratio", "result": 80, "unit": "%"}]}
{"smiles": "C[C@@H]1C[C@H]2[C@@H]3CCC4=CC(=O)C=C[C@]4(C)[C@@]3(F)[C@@H](O)C[C@]2(C)[C@@]1(O)C(=O)CO", "note": "[Dexamethasone, dexamethasone]", "values": [{"measurement": "Amount of luminescence by firefly luciferase (from pGV-Ya-XREx5) Measured value", "setting": "Ah receptor; [3]", "result": "3.71 x 10^2"}, {"measurement": "Amount of luminescence by firefly luciferase (from pGV-Ya-XREx5) Measured value", "setting": "Ah receptor; [4]", "result": "3.54 x 10^2"}, {"measurement": "Amount of luminescence by firefly luciferase (from pGV-Ya-XREx5) Measured value", "setting": "Ah receptor; [5]", "result": "3.39 x 10^2"}, {"measurement": "Amount of luminescence by firefly luciferase (from pGV-Ya-XREx5) Measured value", "setting": "Ah receptor; [6]", "result": "3.22 x 10^2"}, {"measurement": "Amount of luminescence by firefly luciferase (from pGV-Ya-XREx5) Measured value", "setting": "Ah receptor; [7]", "result": "3.53 x 10^2"}, {"measurement": "Amount of luminescence by firefly luciferase (from pGV-Ya-XREx5) Measured value", "setting": "Ah receptor; [8]", "result": "3.73 x 10^2"}, {"measurement": "Amount of luminescence by firefly luciferase (from pGV-Ya-XREx5) Ratio", "setting": "Ah receptor; hepa1c1c7 cells, 6 h, 0.001 µM", "result": 1.3}, {"measurement": "Amount of luminescence by firefly luciferase (from pGV-Ya-XREx5) Ratio", "setting": "Ah receptor; hepa1c1c7 cells, 6 h, 0.01 µM", "result": 1.2}, {"measurement": "Amount of luminescence by firefly luciferase (from pGV-Ya-XREx5) Ratio", "setting": "Ah receptor; hepa1c1c7 cells, 6 h, 0.1 µM", "result": 1.2}, {"measurement": "Amount of luminescence by firefly luciferase (from pGV-Ya-XREx5) Ratio", "setting": "Ah receptor; hepa1c1c7 cells, 6 h, 1 µM", "result": 1.1}, {"measurement": "Amount of luminescence by firefly luciferase (from pGV-Ya-XREx5) Ratio", "setting": "Ah receptor; hepa1c1c7 cells, 6 h, 10 µM", "result": 1.2}, {"measurement": "Amount of luminescence by firefly luciferase (from pGV-Ya-XREx5) Ratio", "setting": "Ah receptor; hepa1c1c7 cells, 6 h, 50 µM", "result": 1.3}, {"measurement": "viability at 6 h, 0.001 µM", "setting": "[2]", "result": 100, "unit": "%"}, {"measurement": "viability at 6 h, 0.01 µM", "setting": "[2]", "result": 100, "unit": "%"}, {"measurement": "viability at 6 h, 0.1 µM", "setting": "[2]", "result": 90, "unit": "%"}, {"measurement": "viability at 6 h, 1 µM", "setting": "[2]", "result": 80, "unit": "%"}, {"measurement": "viability at 6 h, 10 µM", "setting": "[2]", "result": 100, "unit": "%"}, {"measurement": "viability at 6 h, 50 µM", "setting": "[2]", "result": 110, "unit": "%"}]}
